Columns and labels:
Type in all cases: functional
Galendromus occidentalis [1] = assay: Toxicity against Metaseiulus occidentalis adults in bean leaf disk infested with two-spotted spider mites assessed as repellency at 0.3024 g AI/L treated using worst-case laboratory exposure procedure measured after 48 hr (reference value: 13.6%)
Galendromus occidentalis [2] = assay: Toxicity against Metaseiulus occidentalis adults in bean leaf disk infested with two-spotted spider mites assessed as repellency at 0.3024 g AI/L treated using worst-case laboratory exposure procedure measured after 72 hr (reference value: 16.1%)
Galendromus occidentalis [3] = assay: Toxicity against Metaseiulus occidentalis adults in bean leaf disk infested with two-spotted spider mites assessed as repellency at 0.3024 g AI/L treated using worst-case laboratory exposure procedure measured after 24 hr (reference value: 3.6%)
Galendromus occidentalis [4] = assay: Toxicity against Metaseiulus occidentalis adults in bean leaf disk infested with two-spotted spider mites assessed as average number of eggs laid (fecundity) at 0.3024 g AI/L treated using worst-case laboratory exposure procedure measured after 72 hr (reference value: 2.23/day)
Galendromus occidentalis [5] = assay: Toxicity against Metaseiulus occidentalis adults in bean leaf disk infested with two-spotted spider mites assessed as corrected mortality at 0.3024 g AI/L treated using worst-case laboratory exposure procedure measured after 72 hr
Galendromus occidentalis [6] = assay: Toxicity against Metaseiulus occidentalis adults in bean leaf disk infested with two-spotted spider mites assessed as average number of eggs laid (fecundity) at 0.3024 g AI/L treated using worst-case laboratory exposure procedure measured after 48 hr (reference value: 2.30/day)
Galendromus occidentalis [7] = assay: Toxicity against Metaseiulus occidentalis adults in bean leaf disk infested with two-spotted spider mites assessed as average number of eggs laid (fecundity) at 0.3024 g AI/L treated using worst-case laboratory exposure procedure measured after 24 hr (reference value: 2.11/day)
Galendromus occidentalis [8] = assay: Ovicidal activity against Metaseiulus occidentalis eggs in bean leaf disk infested with two-spotted spider mites assessed as corrected cumulative mortality at 240 g/L SC formulation treated using worst-case laboratory exposure procedure measured after 144 hr (reference value: 0.7%)
Galendromus occidentalis [9] = assay: Toxicity against Metaseiulus occidentalis adults in bean leaf disk infested with two-spotted spider mites assessed as repellency at 0.1333 g AI/L treated using worst-case laboratory exposure procedure measured after 72 hr (reference value: 16.1%)
Galendromus occidentalis [10] = assay: Toxicity against Metaseiulus occidentalis adults in bean leaf disk infested with two-spotted spider mites assessed as repellency at 0.1333 g AI/L treated using worst-case laboratory exposure procedure measured after 48 hr (reference value: 13.6%)
Galendromus occidentalis [11] = assay: Toxicity against Metaseiulus occidentalis adults in bean leaf disk infested with two-spotted spider mites assessed as repellency at 0.1333 g AI/L treated using worst-case laboratory exposure procedure measured after 24 hr (reference value: 3.6%)
Galendromus occidentalis [12] = assay: Toxicity against Metaseiulus occidentalis adults in bean leaf disk infested with two-spotted spider mites assessed as average number of eggs laid (fecundity) at 0.1333 g AI/L treated using worst-case laboratory exposure procedure measured after 72 hr (reference value: 2.23/day)
Galendromus occidentalis [13] = assay: Toxicity against Metaseiulus occidentalis adults in bean leaf disk infested with two-spotted spider mites assessed as corrected mortality at 0.1600 g AI/L treated using worst-case laboratory exposure procedure measured after 72 hr
Galendromus occidentalis [14] = assay: Toxicity against Metaseiulus occidentalis adults in bean leaf disk infested with two-spotted spider mites assessed as corrected mortality at 2x0.1600 g AI/L treated using worst-case laboratory exposure procedure measured after 72 hr
Galendromus occidentalis [15] = assay: Toxicity against Metaseiulus occidentalis adults in bean leaf disk infested with two-spotted spider mites assessed as average number of eggs laid (fecundity) at 0.1333 g AI/L treated using worst-case laboratory exposure procedure measured after 48 hr (reference value: 2.30/day)
Galendromus occidentalis [16] = assay: Toxicity against Metaseiulus occidentalis adults in bean leaf disk infested with two-spotted spider mites assessed as average number of eggs laid (fecundity) at 0.1333 g AI/L treated using worst-case laboratory exposure procedure measured after 24 hr (reference value: 2.11/day)
Galendromus occidentalis [17] = assay: Toxicity against Metaseiulus occidentalis adults in bean leaf disk infested with two-spotted spider mites assessed as corrected mortality at 4x0.1600 g AI/L treated using worst-case laboratory exposure procedure measured after 72 hr
Galendromus occidentalis [18] = assay: Ovicidal activity against Metaseiulus occidentalis eggs in bean leaf disk infested with two-spotted spider mites assessed as corrected cumulative mortality at 480 g/L SC formulation treated using worst-case laboratory exposure procedure measured after 144 hr (reference value: 0.7%)
Galendromus occidentalis [19] = assay: Toxicity against Metaseiulus occidentalis adults in bean leaf disk infested with two-spotted spider mites assessed as repellency at 0.1600 g AI/L treated using worst-case laboratory exposure procedure measured after 72 hr (reference value: 16.1%)
Galendromus occidentalis [20] = assay: Toxicity against Metaseiulus occidentalis adults in bean leaf disk infested with two-spotted spider mites assessed as repellency at 0.1600 g AI/L treated using worst-case laboratory exposure procedure measured after 48 hr (reference value: 13.6%)
Galendromus occidentalis [21] = assay: Toxicity against Metaseiulus occidentalis adults in bean leaf disk infested with two-spotted spider mites assessed as repellency at 0.1600 g AI/L treated using worst-case laboratory exposure procedure measured after 24 hr (reference value: 3.6%)
Galendromus occidentalis [22] = assay: Toxicity against Metaseiulus occidentalis adults in bean leaf disk infested with two-spotted spider mites assessed as average number of eggs laid (fecundity) at 0.1600 g AI/L treated using worst-case laboratory exposure procedure measured after 72 hr (reference value: 2.23/day)
Galendromus occidentalis [23] = assay: Toxicity against Metaseiulus occidentalis adults in bean leaf disk infested with two-spotted spider mites assessed as average number of eggs laid (fecundity) at 0.1600 g AI/L treated using worst-case laboratory exposure procedure measured after 48 hr (reference value: 2.30/day)
Galendromus occidentalis [24] = assay: Toxicity against Metaseiulus occidentalis adults in bean leaf disk infested with two-spotted spider mites assessed as average number of eggs laid (fecundity) at 0.1600 g AI/L treated using worst-case laboratory exposure procedure measured after 24 hr (reference value: 2.11/day)
Galendromus occidentalis [25] = assay: Ovicidal activity against Metaseiulus occidentalis eggs in bean leaf disk infested with two-spotted spider mites assessed as corrected cumulative mortality at 250 g/kg WG formulation treated using worst-case laboratory exposure procedure measured after 144 hr (reference value: 0.7%)

CCC(C)(C)C(=O)OC1=C(c2ccc(Cl)cc2Cl)C(=O)OC12CCCCC2 [SPIRODICLOFEN]
Repellency (Galendromus occidentalis [1]): 13.5%
Repellency (Galendromus occidentalis [2]): 15.4%
Repellency (Galendromus occidentalis [3]): 6.4%
Activity (Galendromus occidentalis [4]): 1.43 day⁻¹
mortality (Galendromus occidentalis [5]): 2.1%
Activity (Galendromus occidentalis [6]): 1.83 day⁻¹
Activity (Galendromus occidentalis [7]): 1.93 day⁻¹
mortality at 240000 µg/mL (stock) (Galendromus occidentalis [8]): 2.3%

N#C/N=C1\SCCN1Cc1ccc(Cl)nc1 [THIACLOPRID]
Repellency (Galendromus occidentalis [9]): 49.4%
Repellency (Galendromus occidentalis [10]): 44.9%
Repellency (Galendromus occidentalis [11]): 12.2%
Activity (Galendromus occidentalis [12]): 1.58 day⁻¹
mortality (Galendromus occidentalis [13]): 2.8%
mortality (Galendromus occidentalis [14]): 2.3%
Activity (Galendromus occidentalis [15]): 1.26 day⁻¹
Activity (Galendromus occidentalis [16]): 1.64 day⁻¹
mortality (Galendromus occidentalis [17]): 5.8%
mortality at 480000 µg/mL (stock) (Galendromus occidentalis [18]): 1.9%

CN1COCN(Cc2cnc(Cl)s2)/C1=N\[N+](=O)[O-] [THIAMETHOXAM]
Repellency (Galendromus occidentalis [19]): 41%
Repellency (Galendromus occidentalis [20]): 34%
Repellency (Galendromus occidentalis [21]): 5.1%
Activity (Galendromus occidentalis [22]): 0.58 day⁻¹
mortality (Galendromus occidentalis [13]): 8%
mortality (Galendromus occidentalis [14]): 6.2%
Activity (Galendromus occidentalis [23]): 0.33 day⁻¹
Activity (Galendromus occidentalis [24]): 1.44 day⁻¹
mortality (Galendromus occidentalis [17]): 8.5%
mortality (Galendromus occidentalis [25]): 4.3%
